From PMC12320245 (International Journal of Biological Sciences, 2025)
“Also recorded” adds a separate entry of the source.

Tests used:
[1] = tested on: cultured cortical astrocytes; assay: p-PKA substrate Western blot in astrocytes; assay type: cell-based; details: 10 µM AMX for 1 and 4 hours
astrocytes = assay: Lysosomal zinc (FluoZin-3 with LysoTracker); assay type: cell-based; details: 10 μM AMX for 30 minutes
[2] = tested on: primary hippocampal neurons; assay: Scratch injury: p-PKA immunofluorescence; assay type: cell-based, rat; details: 24 hours after scratch injury
Description: (§1) Primary hippocampal neurons were obtained from embryonic day 18 (E18) Sprague-Dawley rat embryos. Pregnant rats were anesthetized using 2-3% isoflurane in a gas mixture of 70% nitrous oxide and 30% oxygen. Following euthanasia, the hippocampi were carefully dissected, minced, and enzymatically dissociated using TrypLE Express (Gibco, NY, USA) for 10 minutes at 37°C. The tissue was further mechanically dissociated using fire-polished glass pipettes, and the resulting cell suspension was filtered through a 70 μm cell strainer to remove debris. Neurons were seeded at a density of 3 × 10^5 cells per well in 24-well plates pre-coated with poly-L-lysine (Sigma-Aldrich, Saint Louis, MO, USA). Cells were maintained in neurobasal medium supplemented with B-27 (Thermo Fisher Scientific, Waltham, MA, USA), GlutaMAX (Gibco), and penicillin-streptomycin. The cultures were incubated at 37.5°C in a humidified atmosphere containing 5% CO₂. After seven days of growth, neurons were fixed with 4% paraformaldehyde (PFA) for 15 minutes at room temperature and subsequently stored at 4°C until their further use for immunostaining.
(§2) A scratch injury model was used to mimic TBI in vitro. […] After the treatment period, neuronal damage and recovery were assessed using appropriate evaluation methods. […]

[3] = tested on: primary hippocampal neurons; assay: Scratch injury: MAP2 / NeuN immunocytochemistry; assay type: cell-based, rat; details: scratched neurons, 24 hours after scratch
Description: as §1, §2

hippocampus of TBI rats [4] = assay: Controlled cortical impact TBI: hippocampal immunofluorescence; assay type: in vivo, rat
Description: (§3) This study used male Sprague-Dawley rats weighing 300-350 g and aged 8 weeks, obtained from DBL Co. (Chungcheongbuk-do, Republic of Korea). The rats were housed in a controlled environment with a temperature of 20 ± 2 °C, a relative humidity of 55 ± 5%, and a 12-hour light/dark cycle. They were provided ad libitum access to food and water. To minimize stress associated with transportation, animals underwent a one-week acclimatization period before the start of the experiments. All experimental procedures were conducted in compliance with the guidelines of the National Institutes of Health for the care and use of laboratory animals and were approved by the Hallym University Institutional Animal Care and Use Committee (protocol # Hallym 2022-23, approved on July 15, 2022). This manuscript follows the principles outlined in the Animal research: reporting in vivo experiments (ARRIVE) guidelines.
A controlled cortical impact (CCI) model was used to induce TBI in rats. Animals were anesthetized with 1-1.5% isoflurane in a 30:70 oxygen-to-nitrous oxide mixture and securely positioned in a stereotaxic frame. A 3 mm craniotomy was performed using a portable drill at a site 2.8 mm lateral to the midline and 3.0 mm posterior to Bregma. TBI was induced using an Impact One™ Stereotaxic Impactor (Leica Biosystems) equipped with a 3 mm flat-tip, set to deliver an impact at a velocity of 5 m/s and a depth of 3 mm. Throughout the procedure, body temperature was maintained at 36-37.5°C using a homeothermic blanket system to prevent hypothermia. […] At designated time points (3 hours, 24 hours, or 2 weeks post-injury), animals were euthanized via transcardial perfusion with saline, followed by 4% paraformaldehyde (PFA). Brains were post-fixed in 4% PFA for 1 hour, cryoprotected in 30% sucrose, and sectioned at a 30 μm thickness using a cryostat microtome (CM1850; Leica, Wetzlar, Germany). Brain sections were stored in cryoprotectant solution at 4°C until further analysis.
Brain tissues were initially treated with 1.2% hydrogen peroxide at room temperature for 15 minutes to block endogenous peroxidase activity. Following this step, the tissues were washed three times in PBS for 10 minutes each. The tissues and fixed primary neurons were incubated overnight at 4°C with primary antibodies diluted in antibody diluent. […]. After incubation with primary antibodies, tissues were washed in PBS and incubated for 2 hours at room temperature on a shaker with fluorescent-conjugated secondary antibodies (1:250, Invitrogen). All samples were counterstained with DAPI (1:1000, Invitrogen) to visualize cell nuclei. The stained tissues were mounted on gelatin-coated slides, air-dried, and coverslipped using DPX mounting medium. To evaluate the fluorescent signals of labeled proteins, observations were performed using a Zeiss LSM 710 confocal microscope (Carl Zeiss) with sequential scanning mode for DAPI and Alexa 488 and 594. Stacks of images (1024 × 1024 pixels) from consecutive slices of 0.5-0.8 μm in thickness were obtained by averaging fifteen scans per slice, processed using ZEN 2 (blue edition, Carl Zeiss).

hippocampus of TBI rats [5] = assay: Controlled cortical impact TBI: NeuN immunohistochemistry; assay type: in vivo, rat; details: CA1, CA3, GCL, hilus, 2 weeks post-TBI, vs TBI-vehicle
Description: as §3
(§4) A controlled cortical impact (CCI) model was used to induce TBI in rats. Animals were anesthetized with 1-1.5% isoflurane in a 30:70 oxygen-to-nitrous oxide mixture and securely positioned in a stereotaxic frame. A 3 mm craniotomy was performed using a portable drill at a site 2.8 mm lateral to the midline and 3.0 mm posterior to Bregma. […]

[6] = tested on: ipsilateral hippocampus of TBI rats; assay: Controlled cortical impact TBI: IgG extravasation (BBB integrity); assay type: in vivo, rat; details: 24 hours and 2 weeks post-TBI
Description: as §3, §4

[7] = neuroinflammation or brain injury; cited from earlier work
[8] = hippocampal regions, 24 hours after TBI
[9] = hippocampus, 24 hours after TBI

With CC(C)c1ccc2oc3nc(N)c(C(=O)O)cc3c(=O)c2c1 [AMX, amlexanox] the p-PKA levels [1] was “increased p-PKA levels”, the “lysosomal zinc (FluoZin-3 fluorescence)” value (astrocytes) was “significant increase in zinc fluorescence within lysosomes” and the “phosphorylation of PKA (immunofluorescence, Figure S2E-J)” value [2] was “increasing the phosphorylation of PKA”. The “MAP2 fluorescence intensity (dendritic loss)” value [3] was “Increased MAP2 fluorescence intensity”, the “number of NeuN-positive neurons” value [3] was “significantly higher” and the “hippocampal PDE4 expression (immunofluorescence)” value (hippocampus of TBI rats [4]; 3 hours post-TBI) was “markedly reduced PDE4 expression”. The “4HNE staining (lipid peroxidation)” value (hippocampus of TBI rats [4]; [8]) was “significantly reduced 4HNE staining”, the “CD86 staining (M1 polarization)” value (hippocampus of TBI rats [4]; [8]) was “decreased Iba-1 and CD86 staining” and the “Iba-1 staining (microglial activation)” value (hippocampus of TBI rats [4]; [8]) was “decreased Iba-1 and CD86 staining”. The “p-p38 levels (immunofluorescence)” value (hippocampus of TBI rats [4]; hippocampal regions, 24 hours post-TBI, vs TBI-vehicle) was “significantly reduced p-p38 levels”, the C3 intensity (hippocampus of TBI rats [4]; [9]) was “lower GFAP and C3 intensity” and the “GFAP intensity (astrocytic activation)” value (hippocampus of TBI rats [4]; [9]) was “lower GFAP and C3 intensity”. For the same compound, the NeuN-positive cell counts (hippocampus of TBI rats [5]) was “higher NeuN-positive cell counts”, the “IgG extravasation (BBB integrity)” value [6] was “reduces this leakage; also recorded: significantly reduced IgG extravasation” and the “crossing of the BBB” value [7] was “can cross the BBB under pathological conditions”.
